Test: WS12 leaching from lens into PBS packaging solution during autoclave (HPLC)
Format: physicochemical
Conditions: standard contact lens sterilization and storage conditions
Description: Silicone hydrogel contact lenses were prepared by curing the formulation for stenfilcon A in contact lens molds. The cured stenfilcon A was removed from the molds and extracted by immersing them for 215 minutes in ethanol (EtOH) containing WS12 (Tocris Bioscience) in the loading concentrations shown in Table I. The lenses were removed from the EtOH and washed in DI water for approximately 6 minutes, followed by two exchanges of DI water for approximately 30 minutes each. The lenses were transferred to 6 mL glass vials containing 3 mL phosphate buffered saline at pH 7.5 (0.78 wt. % NaCl, 0.05 wt. % sodium phosphate monobasic, and 0.36 wt. % sodium phosphate dibasic), referred to herein as PBS. The vials were sealed and autoclaved.
Each autoclaved lens was transferred to a vial containing 3 ml EtOH and stored overnight on a 150 rpm shaker at room temperature to extract WS12 from the lens. The EtOH extracts and the PBS in which the lenses were autoclaved were submitted for analysis by HPLC (detection wavelength=250 nm) against calibration standards to determine the average amount of WS12 loaded into each (n=5) and whether the WS12 leaches from the lens during autoclave.

## COc1ccc(NC(=O)C2CC(C)CCC2C(C)C)cc1 (stereo not shown) [WS12, N-(4-Methoxyphenyl)-5-methyl-2-(1-methylethyl)cyclohexanecarboxamide]
  stability of WS12 in hydrogel lens material during sterilization and storage: without degradation or leaching

From US11934044B2, “WS12-releasing contact lens” (CooperVision International Limited, priority 2021, dated 2024)
